From PubChem BioAssay AID489027 (Sanford-Burnham Center for Chemical Genomics, 2010)
The source made the active and inactive calls. The rule behind the calls is not given here.

target: UPR counterscreen luciferase reporter, luminescence; assay: luciferase reporter activation, UPR counterscreen line – cell-based, luminescence, counter-screen for adaptive UPR activator project, dose response (AID 489027)

Structure (SMILES) | EC50
CC1CCc2c(sc(NC(=O)CCc3nc4ccccc4c(=O)[nH]3)c2C#N)C1 (stereo unspecified) | inactive
O=C(Nc1ccc(Cl)cc1)Nc1ccccc1Sc1ncc([N+](=O)[O-])s1 | inactive
CCOc1ccc(NC(=O)C(Cc2ccccc2)N2C(=O)c3cccc4cccc(c34)C2=O)cc1 (stereo unspecified) | > 80 µM (inactive)
CCc1ccc(OCCNc2cc(N3CCNC(C)C3)ccc2[N+](=O)[O-])cc1 (stereo unspecified) | > 80 µM (inactive)
O=[N+]([O-])c1ccc(N/N=C/c2ccc(OCc3cccc4ccccc34)cc2)nc1 | > 80 µM (inactive)
NC1=NC[C@@H](CC2CCCCC2)N1CCc1cc(C(F)(F)F)cc(C(F)(F)F)c1 | > 80 µM (inactive)
O=C(N/N=C/c1ccc(O)c(O)c1)c1ccc(CSc2cccc3cccnc23)cc1 | 15.2 µM
COc1ccc(NC(=O)c2sc3nc(N4CCOCC4)c4c(c3c2N)CC(C)(C)OC4)c(OC)c1 | 19.3 µM
COc1ccc(NC(=O)c2cc3c(=O)n(C)c4ccccc4c3n2C)cc1Cl | > 80 µM (inactive)
O=C(/C=C\c1cn(-c2ccccc2)nc1-c1ccccc1)Nc1nccs1 | > 80 µM (inactive)
C/C(=N/NC(=O)c1ccc(Cl)s1)c1ccc(NC(=O)COc2ccc(Cl)cc2)cc1 | inactive
Cc1nc(Nc2nc(-c3ccccc3)cc(=O)[nH]2)nc2ccccc12 | > 80 µM (inactive)
CCCCCC(=O)Nc1ccc(C(=O)N/N=C/c2ccc([N+](=O)[O-])cc2)cc1 | inactive
CCOC(=O)c1nnc(-c2ccccc2)nc1Sc1c(Cl)cccc1Cl | 12.9 µM
O=C(CC1C[C@H](C(=O)N2CCCCC2)[C@@]2(CCc3ccccc3)c3[nH]c4ccccc4c3CCN2C1=O)NCCC1=CCCCC1 (stereo partly specified) | inactive
CCOC(=O)c1nnn2c1nc(Nc1cccc(C(F)(F)F)c1)c1ccccc12 | 10 µM
CC1CCC(C(C)C)C(OC(=O)Cn2c(-c3ccc(Br)cc3)[n+](C)c3ccccc32)C1 (stereo unspecified) | 10.9 µM
Cc1ccc(NC(=O)c2ccc(N/N=C/c3cccc(O)c3)c([N+](=O)[O-])c2)cc1 | 6.64 µM
O=C(Nc1nc2ccccc2s1)c1cc2c(s1)-c1ccccc1OC2 | inactive
Nc1nc(SCc2ccc(Cl)cc2Cl)nc2nc3c(cc12)CCCC3 | > 80 µM (inactive)
O=C(Nc1ccc([N+](=O)[O-])cc1)c1nc[nH]c1C(=O)NC1CCCCC1 | > 80 µM (inactive)
COc1cc(/C=C2\CC(C(C)(C)C)C/C(=C\c3cc(OC)c(OC)c(OC)c3)C2=O)cc(OC)c1OC (stereo unspecified) | 4 µM
CCOc1cc(/C=N/N=C(\N)c2nonc2N)cc(Br)c1OCc1cccc2ccccc12 | > 80 µM (inactive)

Structure (SMILES) | EC50
COc1ccc(-c2cc(C(F)F)n3ncc(C(=O)Nc4ccc(C(=O)N5CCOCC5)cc4)c3n2)cc1 | > 80 µM (inactive)
CC(C)CN=C(NS(=O)(=O)c1ccccc1)C(Cl)(Cl)Cl | 16.2 µM
CC(C)=CCCC1(C)C=Cc2c(c(C)cc3c2[nH]c2cc(O)ccc23)O1 (stereo unspecified) | inactive
CCCC[C@@H](C)C[C@@H](C)C(=O)N(C)[C@@H](CC(C)C)C(=O)N[C@H](C(=O)N(C)[C@H](C(=O)N1C[C@@H](O)C[C@H]1C(=O)N1C(=O)C=C[C@@H]1C)C(C)C)C(C)OC(C)=O (stereo partly specified) | 7.75 µM
CC(C)Cn1c2c(c(=O)[nH]c1=O)C(C(F)(F)F)(C(F)(F)F)N=C(CCC1CCCCC1)N2 | inactive
CN(C)CC(CCC(CN(C)C)C(O)(c1ccccc1)c1ccccc1)C(O)(c1ccccc1)c1ccccc1 (stereo unspecified) | 6.06 µM
COc1ccc(OC)c(-c2nnc3n2N=C(c2ccc(OC)c(OC)c2)CS3)c1 | > 80 µM (inactive)
O=C(N/N=C/c1ccc(Cl)cc1)c1sccc1OCc1ccc(F)cc1 | inactive
COc1cc2[nH]c3c(N4CCN(c5ccc(Cl)cc5)CC4)ncnc3c2cc1OC | > 80 µM (inactive)
CN(C)c1ccc(/C=C/[N+](=O)[O-])cc1 | 12.6 µM
COc1ccc(CNC(=O)/C(C#N)=C/c2cccc(OC)c2OC)cc1 | inactive
Nc1nc(Nc2ccccc2)nc(NC2CCCCC2)c1[N+](=O)[O-] | inactive
O=C(Oc1ccc(F)cc1C(=O)/C=C/c1cccs1)c1cccc([N+](=O)[O-])c1 | inactive
CC1CCN(Cc2c(C(=O)N/N=C/c3ccc(C(C)(C)C)cc3)nnn2-c2nonc2N)CC1 | 6.58 µM
COc1cc(CNCCO)cc(Cl)c1OCc1ccc(Cl)cc1Cl | > 80 µM (inactive)
O=C(NCCC1=CCCCC1)C(=O)NCC(c1ccco1)N1CCN(c2ccc(F)cc2)CC1 (stereo unspecified) | > 80 µM (inactive)
CN(C)C(=O)CCc1ccc2c3c([nH]c2c1)[C@]1(CCc2ccccc2)[C@@H](C(=O)N2CCCCC2)C[C@H](CC(=O)NCCC2=CCCCC2)C(=O)N1CC3 | inactive
CCOC(=O)c1ccc(-c2ccc(/C=N/NC(=O)CN(c3cccc(C)c3)S(C)(=O)=O)o2)cc1 | 15.5 µM
CCOC(=O)c1nnc(-c2ccccc2)nc1Sc1ccccc1Cl | 14.3 µM
CCOC(=O)/C(=N\Nc1ccc(C(C)=O)cc1)c1csc(Nc2ccccc2)n1 | inactive
CCN(CC)S(=O)(=O)c1ccc(N/N=C(\C)c2ccc3c(c2)OCO3)c([N+](=O)[O-])c1 | inactive
COc1ccc(-c2c(-c3cc(OC)cc(OC)c3)n(C)c3ccc(-c4cnc(N)nc4)cc23)cc1 | > 80 µM (inactive)
CC(=O)Oc1ccc(-c2ccc(C(=O)OCC(=O)N(C)CC(=O)Nc3ccccc3Cl)cc2)cc1 | 3.02 µM
